Experimental data reported in ChEMBL document CHEMBL1201862, “PubChem BioAssay data set” (2004).
Active and inactive are the calls of the source.

Tests used:
[1] = biological target: Alkaline phosphatase, placental type (Homo sapiens, UniProt P05187); experiment: human placental alkaline phosphatase inhibition – biochemical, luminescence, confirmation (AID 1512); type: functional
[2] = biological target: T1, Alkaline phosphatase, tissue-nonspecific isozyme (Homo sapiens, UniProt P05186); experiment: potency against alkaline phosphatase TNAP – biochemical, luminescent, dose response, SAR follow-up (AID 1056)
T1 sequence (P05186 whole entry): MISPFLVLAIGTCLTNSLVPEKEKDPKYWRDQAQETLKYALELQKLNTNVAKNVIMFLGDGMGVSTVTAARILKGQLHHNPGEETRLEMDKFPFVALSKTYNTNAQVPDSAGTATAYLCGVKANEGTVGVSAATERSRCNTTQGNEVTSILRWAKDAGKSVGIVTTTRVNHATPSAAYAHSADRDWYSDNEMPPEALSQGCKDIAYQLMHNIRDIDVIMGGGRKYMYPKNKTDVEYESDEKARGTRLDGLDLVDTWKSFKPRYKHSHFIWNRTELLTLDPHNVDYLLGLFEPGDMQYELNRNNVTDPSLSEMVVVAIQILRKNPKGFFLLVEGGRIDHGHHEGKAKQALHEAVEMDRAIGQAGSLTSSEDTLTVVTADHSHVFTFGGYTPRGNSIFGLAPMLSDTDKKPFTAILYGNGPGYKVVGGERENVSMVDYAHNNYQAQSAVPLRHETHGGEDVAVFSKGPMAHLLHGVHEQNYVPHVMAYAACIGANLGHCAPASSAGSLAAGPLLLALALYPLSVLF

[3] = biological target: T2, E3 ubiquitin-protein ligase XIAP (Homo sapiens, UniProt P98170); experiment: small molecules displacing peptide from XIAP – biochemical, IAP family, fluorescence polarization (AID 1018); type: functional
T2 sequence (P98170 whole entry): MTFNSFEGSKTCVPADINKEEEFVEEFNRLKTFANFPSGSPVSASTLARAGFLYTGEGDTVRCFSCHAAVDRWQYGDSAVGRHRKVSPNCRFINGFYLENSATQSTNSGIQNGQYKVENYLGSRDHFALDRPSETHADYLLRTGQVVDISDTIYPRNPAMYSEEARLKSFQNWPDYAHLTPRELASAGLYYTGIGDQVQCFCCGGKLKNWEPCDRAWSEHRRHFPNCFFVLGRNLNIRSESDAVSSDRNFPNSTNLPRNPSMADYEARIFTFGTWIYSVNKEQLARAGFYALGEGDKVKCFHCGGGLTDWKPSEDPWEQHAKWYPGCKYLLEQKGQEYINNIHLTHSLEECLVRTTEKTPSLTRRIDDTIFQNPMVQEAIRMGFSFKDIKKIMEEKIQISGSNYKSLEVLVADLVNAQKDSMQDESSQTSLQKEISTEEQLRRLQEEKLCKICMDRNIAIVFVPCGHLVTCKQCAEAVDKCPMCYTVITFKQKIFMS

[4] = biological target: T2, E3 ubiquitin-protein ligase XIAP; experiment: Counter Screen using XIAP-Bir3 for Chemical Antagonists of Bir1/2 domains of IAP-family anti-apoptotic proteins. [Related pubchem assays (depositor defined):AID1018, AID1449, AID1514, AID1638, AID1749, AID1750, AID488957, AID488963]
X-box-binding protein 1 = biological target: T3, X-box-binding protein 1 (Homo sapiens, UniProt P17861); type: functional, Cricetulus griseus;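 also: confirmatory dose-response counter-screen serving a CHOP assay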
T3 sequence (P17861 whole entry): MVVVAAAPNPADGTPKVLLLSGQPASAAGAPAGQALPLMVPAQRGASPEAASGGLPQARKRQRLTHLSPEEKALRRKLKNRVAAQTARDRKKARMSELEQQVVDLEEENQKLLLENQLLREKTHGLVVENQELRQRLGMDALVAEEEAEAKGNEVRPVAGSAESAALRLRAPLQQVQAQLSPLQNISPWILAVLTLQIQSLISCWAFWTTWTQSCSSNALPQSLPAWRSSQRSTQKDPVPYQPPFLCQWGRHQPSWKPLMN

SUMO-activating enzyme = SUMO-activating enzyme (Homo sapiens, UniProt Q9UBT2); experiment: blockers of UBC9-mediated SUMO conjugation – biochemical, AlphaScreen, SUMOylation inhibitor project, confirmation (AID 2018); type: functional
Sequence of SUMO-activating enzyme (Q9UBE0 whole entry): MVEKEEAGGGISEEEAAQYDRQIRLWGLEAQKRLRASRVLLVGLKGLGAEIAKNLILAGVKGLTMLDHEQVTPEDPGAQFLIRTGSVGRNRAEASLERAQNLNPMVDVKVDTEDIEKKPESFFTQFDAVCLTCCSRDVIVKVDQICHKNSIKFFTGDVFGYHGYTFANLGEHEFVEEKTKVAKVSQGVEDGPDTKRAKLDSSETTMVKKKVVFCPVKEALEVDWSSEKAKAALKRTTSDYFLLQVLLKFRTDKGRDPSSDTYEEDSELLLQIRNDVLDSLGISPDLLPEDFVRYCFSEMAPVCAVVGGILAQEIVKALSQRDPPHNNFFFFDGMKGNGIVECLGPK
Sequence of SUMO-activating enzyme (Q9UBT2 whole entry): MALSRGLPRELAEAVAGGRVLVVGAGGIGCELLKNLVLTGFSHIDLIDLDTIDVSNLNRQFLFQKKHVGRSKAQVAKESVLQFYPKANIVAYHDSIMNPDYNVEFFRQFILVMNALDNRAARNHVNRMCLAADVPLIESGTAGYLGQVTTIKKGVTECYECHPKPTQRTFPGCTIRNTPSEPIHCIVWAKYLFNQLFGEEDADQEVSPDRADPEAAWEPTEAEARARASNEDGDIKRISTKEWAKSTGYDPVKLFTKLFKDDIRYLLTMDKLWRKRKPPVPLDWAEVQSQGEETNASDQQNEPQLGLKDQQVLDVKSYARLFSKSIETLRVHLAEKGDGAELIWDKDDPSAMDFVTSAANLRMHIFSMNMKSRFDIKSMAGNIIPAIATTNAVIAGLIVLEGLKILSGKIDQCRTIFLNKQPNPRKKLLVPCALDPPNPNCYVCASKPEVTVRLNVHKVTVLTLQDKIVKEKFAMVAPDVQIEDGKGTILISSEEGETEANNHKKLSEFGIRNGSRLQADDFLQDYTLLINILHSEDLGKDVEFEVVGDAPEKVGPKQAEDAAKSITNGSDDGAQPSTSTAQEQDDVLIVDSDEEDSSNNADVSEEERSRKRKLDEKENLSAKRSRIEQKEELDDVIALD

Protein RecA = biological target: T4, Protein RecA (Mycobacterium tuberculosis, UniProt P9WHJ3); experiment: Fluorescence Cell-Free Homogeneous Dose Retest to Identify Inhibitors of RecA-Intein Splicing Activity. [Related pubchem assays (depositor defined):AID2097, AID2223, AID489010, AID492950]; type: functional
T4 sequence (P9WHJ3 whole entry): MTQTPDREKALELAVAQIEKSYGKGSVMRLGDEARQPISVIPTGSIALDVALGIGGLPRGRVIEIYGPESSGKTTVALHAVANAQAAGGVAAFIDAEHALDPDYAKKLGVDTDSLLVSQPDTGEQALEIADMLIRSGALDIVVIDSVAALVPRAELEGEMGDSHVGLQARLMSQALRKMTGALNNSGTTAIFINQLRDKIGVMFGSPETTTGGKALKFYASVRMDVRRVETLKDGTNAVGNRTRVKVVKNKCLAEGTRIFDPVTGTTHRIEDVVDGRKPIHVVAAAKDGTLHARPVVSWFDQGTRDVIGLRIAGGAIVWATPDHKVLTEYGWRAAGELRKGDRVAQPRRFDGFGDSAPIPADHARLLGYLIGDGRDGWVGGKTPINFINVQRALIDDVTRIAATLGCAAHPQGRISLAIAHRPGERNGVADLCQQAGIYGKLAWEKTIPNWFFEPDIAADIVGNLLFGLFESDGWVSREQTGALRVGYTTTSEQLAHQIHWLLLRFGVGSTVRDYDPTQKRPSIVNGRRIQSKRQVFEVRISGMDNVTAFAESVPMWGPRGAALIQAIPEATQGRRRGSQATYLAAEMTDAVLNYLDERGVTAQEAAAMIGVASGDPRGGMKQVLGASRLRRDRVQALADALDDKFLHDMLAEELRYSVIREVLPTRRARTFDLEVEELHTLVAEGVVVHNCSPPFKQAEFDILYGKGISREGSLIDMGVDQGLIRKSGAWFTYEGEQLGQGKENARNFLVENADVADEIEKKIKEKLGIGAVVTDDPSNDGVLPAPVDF

[5] = HEK-293T viability loss after treatment – luminescence, T-cell screen hits, cytotoxicity control for TCR NF-kB inhibitor project, dose response (AID 489026); type: functional, cell-based;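 also: cells exposed to compound about 14 hours before the viability readout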
[6] = biological target: T5, Replicative DNA helicase DnaB (Mycobacterium tuberculosis, UniProt P9WMR3); experiment: DnaB intein splicing inhibitors, dose response, biochemical, cell-free fluorescence (AID 449749); type: functional
T5 sequence (P9WMR3 whole entry): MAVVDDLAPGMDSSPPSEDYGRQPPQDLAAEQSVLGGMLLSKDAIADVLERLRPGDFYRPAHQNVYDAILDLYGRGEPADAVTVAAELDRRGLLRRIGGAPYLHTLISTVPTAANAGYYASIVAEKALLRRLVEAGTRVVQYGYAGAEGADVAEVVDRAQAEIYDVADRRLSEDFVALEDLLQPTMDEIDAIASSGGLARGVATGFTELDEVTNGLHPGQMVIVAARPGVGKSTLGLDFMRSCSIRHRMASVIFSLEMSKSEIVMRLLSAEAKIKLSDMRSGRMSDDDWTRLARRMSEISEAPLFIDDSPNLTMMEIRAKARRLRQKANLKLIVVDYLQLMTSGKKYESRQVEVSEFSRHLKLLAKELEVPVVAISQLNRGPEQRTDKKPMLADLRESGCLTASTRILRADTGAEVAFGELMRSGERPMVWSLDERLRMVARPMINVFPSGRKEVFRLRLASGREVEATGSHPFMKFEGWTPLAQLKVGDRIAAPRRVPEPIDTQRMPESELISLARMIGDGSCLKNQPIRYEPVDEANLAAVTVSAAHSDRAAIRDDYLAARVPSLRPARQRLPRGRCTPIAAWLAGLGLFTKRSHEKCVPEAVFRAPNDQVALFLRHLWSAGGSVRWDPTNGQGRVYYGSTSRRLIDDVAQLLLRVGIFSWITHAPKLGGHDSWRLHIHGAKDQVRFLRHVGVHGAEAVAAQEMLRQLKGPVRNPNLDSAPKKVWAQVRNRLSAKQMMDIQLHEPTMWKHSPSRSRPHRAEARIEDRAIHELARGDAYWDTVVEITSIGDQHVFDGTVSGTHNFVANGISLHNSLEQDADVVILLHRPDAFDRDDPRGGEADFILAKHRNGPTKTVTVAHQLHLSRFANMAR

[7] = Intein inhibitors as potential Tuberculosis drugs, a cytotoxicity screen. [Related pubchem assays (depositor defined):AID2221, AID2223, AID434968, AID435010, AID449749, AID449750, AID489010]; type: functional
[8] = biological target: T6, Short transient receptor potential channel 4 (Mus musculus, UniProt Q9QUQ5); experiment: block of DAMGO-driven TRPC4 calcium entry – cell-based, HEK293 TRPC4/mu-opioid, Fluo-4 calcium, dose response (AID 434942); type: functional;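 also: potency of inhibitors blocking the TRPC4 calcium response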
T6 sequence (Q9QUQ5 whole entry): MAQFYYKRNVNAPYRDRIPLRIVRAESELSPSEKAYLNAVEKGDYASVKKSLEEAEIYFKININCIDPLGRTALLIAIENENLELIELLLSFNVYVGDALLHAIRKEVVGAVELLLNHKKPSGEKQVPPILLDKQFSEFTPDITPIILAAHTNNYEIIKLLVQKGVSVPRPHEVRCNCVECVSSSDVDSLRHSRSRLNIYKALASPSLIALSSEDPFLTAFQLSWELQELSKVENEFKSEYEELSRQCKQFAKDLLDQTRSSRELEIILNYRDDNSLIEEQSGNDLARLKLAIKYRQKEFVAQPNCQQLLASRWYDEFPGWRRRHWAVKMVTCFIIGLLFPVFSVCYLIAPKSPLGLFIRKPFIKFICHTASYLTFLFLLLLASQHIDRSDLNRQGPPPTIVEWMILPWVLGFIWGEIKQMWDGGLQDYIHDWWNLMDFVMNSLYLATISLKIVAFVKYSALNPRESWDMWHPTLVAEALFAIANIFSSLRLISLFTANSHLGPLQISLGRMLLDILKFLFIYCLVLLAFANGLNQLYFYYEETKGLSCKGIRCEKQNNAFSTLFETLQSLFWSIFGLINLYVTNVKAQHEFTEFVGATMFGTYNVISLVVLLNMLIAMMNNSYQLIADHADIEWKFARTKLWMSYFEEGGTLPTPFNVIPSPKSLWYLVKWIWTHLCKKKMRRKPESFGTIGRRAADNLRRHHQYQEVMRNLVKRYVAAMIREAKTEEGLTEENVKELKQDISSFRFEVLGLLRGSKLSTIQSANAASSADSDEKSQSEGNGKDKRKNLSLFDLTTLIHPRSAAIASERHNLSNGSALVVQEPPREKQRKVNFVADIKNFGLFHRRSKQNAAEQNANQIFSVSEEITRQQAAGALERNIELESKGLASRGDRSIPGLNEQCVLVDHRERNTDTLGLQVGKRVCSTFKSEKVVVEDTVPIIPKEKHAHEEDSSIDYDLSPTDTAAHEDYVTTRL

[9] = biological target: Voltage-dependent T-type calcium channel subunit alpha-1H (Homo sapiens, UniProt O95180); type: functional;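 also: channel activity triggered by adding a high calcium stimulation buffer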
Sequence of Voltage-dependent T-type calcium channel subunit alpha-1H (O95180 whole entry): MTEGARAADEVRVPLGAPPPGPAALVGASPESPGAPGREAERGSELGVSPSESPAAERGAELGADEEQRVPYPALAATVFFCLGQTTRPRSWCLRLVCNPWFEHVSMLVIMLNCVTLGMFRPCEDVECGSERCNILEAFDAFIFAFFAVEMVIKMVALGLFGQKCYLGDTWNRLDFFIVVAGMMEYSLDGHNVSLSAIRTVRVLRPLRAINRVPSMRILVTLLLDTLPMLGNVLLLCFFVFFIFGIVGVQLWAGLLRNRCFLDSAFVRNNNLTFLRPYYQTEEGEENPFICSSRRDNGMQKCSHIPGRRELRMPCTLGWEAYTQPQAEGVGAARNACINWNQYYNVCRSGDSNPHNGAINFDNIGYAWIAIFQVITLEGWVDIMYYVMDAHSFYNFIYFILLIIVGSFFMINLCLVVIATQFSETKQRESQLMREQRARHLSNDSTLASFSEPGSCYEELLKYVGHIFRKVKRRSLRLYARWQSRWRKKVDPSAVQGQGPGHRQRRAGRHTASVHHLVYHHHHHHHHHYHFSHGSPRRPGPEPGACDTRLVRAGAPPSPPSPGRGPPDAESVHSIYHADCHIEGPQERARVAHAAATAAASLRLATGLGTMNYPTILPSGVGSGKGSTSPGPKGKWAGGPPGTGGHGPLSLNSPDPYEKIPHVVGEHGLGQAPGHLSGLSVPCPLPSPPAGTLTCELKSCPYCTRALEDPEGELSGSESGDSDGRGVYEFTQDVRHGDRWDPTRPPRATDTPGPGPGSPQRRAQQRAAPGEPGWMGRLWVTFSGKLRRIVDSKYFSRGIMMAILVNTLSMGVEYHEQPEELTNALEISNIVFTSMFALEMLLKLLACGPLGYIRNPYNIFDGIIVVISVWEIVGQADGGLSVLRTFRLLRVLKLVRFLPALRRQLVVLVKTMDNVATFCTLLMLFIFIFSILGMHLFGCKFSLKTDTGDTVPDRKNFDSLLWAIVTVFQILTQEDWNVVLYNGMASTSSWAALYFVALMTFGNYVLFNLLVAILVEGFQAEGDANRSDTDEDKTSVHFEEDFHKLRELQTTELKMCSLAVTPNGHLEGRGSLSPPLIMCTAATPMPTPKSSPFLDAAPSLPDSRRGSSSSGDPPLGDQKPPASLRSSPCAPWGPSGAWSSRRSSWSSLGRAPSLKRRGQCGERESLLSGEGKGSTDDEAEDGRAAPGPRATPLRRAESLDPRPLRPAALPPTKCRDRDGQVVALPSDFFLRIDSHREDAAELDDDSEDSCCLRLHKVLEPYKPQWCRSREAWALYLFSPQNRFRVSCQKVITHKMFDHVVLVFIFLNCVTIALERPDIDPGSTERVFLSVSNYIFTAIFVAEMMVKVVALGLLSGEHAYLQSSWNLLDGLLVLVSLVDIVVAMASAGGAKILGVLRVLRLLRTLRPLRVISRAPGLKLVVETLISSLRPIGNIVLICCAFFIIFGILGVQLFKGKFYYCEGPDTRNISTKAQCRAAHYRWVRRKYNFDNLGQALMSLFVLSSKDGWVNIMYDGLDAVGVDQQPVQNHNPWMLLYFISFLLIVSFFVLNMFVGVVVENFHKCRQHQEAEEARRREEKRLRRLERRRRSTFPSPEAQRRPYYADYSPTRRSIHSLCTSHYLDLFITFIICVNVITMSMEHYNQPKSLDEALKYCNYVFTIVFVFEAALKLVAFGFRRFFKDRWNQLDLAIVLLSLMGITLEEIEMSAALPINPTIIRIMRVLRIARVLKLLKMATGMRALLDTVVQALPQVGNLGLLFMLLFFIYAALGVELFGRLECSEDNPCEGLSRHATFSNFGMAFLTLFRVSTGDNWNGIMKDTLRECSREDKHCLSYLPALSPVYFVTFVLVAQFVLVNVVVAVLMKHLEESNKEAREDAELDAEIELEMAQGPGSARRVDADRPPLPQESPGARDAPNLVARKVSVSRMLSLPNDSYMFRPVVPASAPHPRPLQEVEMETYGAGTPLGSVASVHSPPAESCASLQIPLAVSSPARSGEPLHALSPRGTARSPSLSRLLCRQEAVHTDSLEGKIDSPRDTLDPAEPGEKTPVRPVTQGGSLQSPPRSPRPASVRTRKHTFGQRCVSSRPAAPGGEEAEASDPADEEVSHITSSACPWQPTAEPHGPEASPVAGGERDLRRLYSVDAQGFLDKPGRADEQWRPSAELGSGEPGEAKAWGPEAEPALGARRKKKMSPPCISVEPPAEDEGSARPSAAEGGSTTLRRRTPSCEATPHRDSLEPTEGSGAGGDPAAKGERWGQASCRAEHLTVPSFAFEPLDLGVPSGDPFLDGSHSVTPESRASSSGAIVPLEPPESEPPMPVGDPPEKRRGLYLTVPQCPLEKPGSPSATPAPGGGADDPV
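For CC50 in this document: cells exposed to compound for 72 hours before luminescence readout.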

Sequence of Alkaline phosphatase, placental type (P05187 whole entry): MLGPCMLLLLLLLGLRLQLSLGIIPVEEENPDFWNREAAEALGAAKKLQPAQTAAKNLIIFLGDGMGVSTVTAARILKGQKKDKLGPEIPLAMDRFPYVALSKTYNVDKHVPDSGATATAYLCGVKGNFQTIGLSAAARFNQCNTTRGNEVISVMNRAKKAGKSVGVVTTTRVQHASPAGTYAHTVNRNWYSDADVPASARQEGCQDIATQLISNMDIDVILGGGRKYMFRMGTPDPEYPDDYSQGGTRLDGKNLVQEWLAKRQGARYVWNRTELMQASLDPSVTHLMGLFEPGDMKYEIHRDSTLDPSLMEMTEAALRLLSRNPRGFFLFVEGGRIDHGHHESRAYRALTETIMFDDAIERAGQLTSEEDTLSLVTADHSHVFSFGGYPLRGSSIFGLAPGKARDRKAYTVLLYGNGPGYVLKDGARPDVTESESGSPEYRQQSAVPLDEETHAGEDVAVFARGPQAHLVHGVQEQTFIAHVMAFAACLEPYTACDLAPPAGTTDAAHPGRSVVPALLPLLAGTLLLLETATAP

**Q.** For `Cc1cc(C(=O)NCc2ccc(O)c(O)c2)oc1C`, which IC50 [1] is on record?
**A.** 52.7 µM (active)

**Q.** And the IC50 [2]?
**A.** > 100 µM (inactive)

**Q.** What does the source list for `CN(CC(=O)O)c1ccc(C(F)(F)F)cc1[N+](=O)[O-]`?
**A.** IC50 [3]: > 100 µM (not active); IC50 [4]: > 100 µM (inactive)

**Q.** For `Cc1cccc(NC(=O)/C(C#N)=C/c2cn(CC(=O)NCc3ccco3)c3ccccc23)c1C`, which “Absolute IC50 (XBP1)” value (X-box-binding protein 1) is on record?
**A.** < 10 µM

**Q.** And the IC50 (SUMO-activating enzyme)?
**A.** 36.2 µM (active)

**Q.** Which IC50 [3] does the source give for `COc1ccccc1CNC(=O)COC(=O)Cc1ccsc1` here?
**A.** > 100 µM (not active)

**Q.** What about the IC50 [4] of the same compound?
**A.** > 100 µM (inactive)

**Q.** Which IC50 [3] does the source give for `Cc1cc(NC(=O)c2cc([N+](=O)[O-])cc([N+](=O)[O-])c2)n(-c2ccccc2)n1` here?
**A.** > 100 µM (not active)

**Q.** What about the IC50 [4] of the same compound?
**A.** > 100 µM (inactive)

**Q.** For `COc1cc(NCCCCCCCN)c2ncccc2c1`, which EC50 (Protein RecA) is on record?
**A.** 0.401 µM (active)

**Q.** What about the IC50 [5] of the same compound?
**A.** 46.9 µM (inactive)

**Q.** What about the AC50 [6] of the same compound?
**A.** 2.12 µM (active)

**Q.** And the CC50 [7]?
**A.** > 40 µM (active)

**Q.** Which results are given for `C=CCn1c(SCC(=O)c2ccc(O)c(O)c2)nnc1-c1ccc(OC)cc1`?
**A.** IC50 [1]: 13.6 µM (active); IC50 [2]: > 100 µM (inactive)

**Q.** With `Cc1oc(-c2ccc(Cl)cc2)nc1CN1CCC(C(=O)NCc2cccs2)CC1` as the compound, how does the EC50 [8] read?
**A.** 1.5 µM (active)

**Q.** What about the EC50 [9] of the same compound?
**A.** 4.32 µM (active)

**Q.** For `CN(C)CCCN(C(=O)c1ccc(S(=O)(=O)N2CCCC2)cc1)c1nc2c(F)cc(F)cc2s1`, which EC50 [8] is on record?
**A.** 3.76 µM (active)

**Q.** For `Cc1ccc(-c2nnc(SCC(=O)c3ccc(O)c(O)c3)n2Cc2ccco2)cc1`, which IC50 [1] is on record?
**A.** 5.32 µM (active)

**Q.** What about the IC50 [2] of the same compound?
**A.** 19.2 µM (active)

**Q.** For `O=c1oc2ccccc2c(Nc2ccccc2)c1CN1CCCCC1`, which EC50 [8] is on record?
**A.** 3.35 µM (active)
